From ChEMBL document CHEMBL1140588, “Design and synthesis of potent amido- and benzyl-substituted cis-3-amino-4-(2-cyanopyrrolidide)pyrrolidinyl DPP-IV inhibitors” (Bioorg Med Chem Lett, 2007)

What was measured:
[1] = molecular target: hERG (KCNH2) (Homo sapiens, UniProt Q12809); test: Displacement of [3H]dofetilide from hERG at 10 uM; settings: probe [3H]dofetilide, read-out: Activity
[2] = molecular target: Voltage-gated inwardly rectifying potassium channel KCNH2 (Homo sapiens, UniProt Q12809); test: Inhibition of hERG by patch clamp assay; format: toxicity
[3] = molecular target: Dipeptidyl peptidase 8 (Homo sapiens, UniProt Q6V1X1); test: Inhibition of human DPP8
[4] = Plasma protein binding in Sprague-Dawley rat at 5 mg/kg, po; format: ADME, organism-based; parameters: dose 5 mg/kg, route oral; settings: read-out: PB (converted)
[5] = organism: Rattus norvegicus; test: Inhibition of DPP4 in Sprague-Dawley rat; format: functional
[6] = Cmax in Sprague-Dawley rat at 5 mg/kg, po; format: ADME, organism-based; parameters: dose 5 mg/kg, route oral; settings: in vivo
[7] = Half life in Sprague-Dawley rat at 5 mg/kg, po; format: ADME, organism-based; parameters: dose 5 mg/kg, route oral; settings: in vivo
[8] = Bioavailability in Sprague-Dawley rat at 5 mg/kg, po; format: ADME, organism-based; settings: in vivo
[9] = tested on: Rattus norvegicus; test: AUC(0 to infinity) in Sprague-Dawley rat at 5 mg/kg, po; format: ADME, organism-based, Plasma; parameters: time infinity, dose 5 mg/kg, route oral; settings: in vivo
[10] = tested on: Rattus norvegicus; test: Inhibition of DPP4 in Sprague-Dawley rat at 5 mg/kg, po between 4 to 6 hrs; format: functional; parameters: scale not given: the % may be the effect or the level left

Sequence of hERG (KCNH2) (Q12809 whole entry): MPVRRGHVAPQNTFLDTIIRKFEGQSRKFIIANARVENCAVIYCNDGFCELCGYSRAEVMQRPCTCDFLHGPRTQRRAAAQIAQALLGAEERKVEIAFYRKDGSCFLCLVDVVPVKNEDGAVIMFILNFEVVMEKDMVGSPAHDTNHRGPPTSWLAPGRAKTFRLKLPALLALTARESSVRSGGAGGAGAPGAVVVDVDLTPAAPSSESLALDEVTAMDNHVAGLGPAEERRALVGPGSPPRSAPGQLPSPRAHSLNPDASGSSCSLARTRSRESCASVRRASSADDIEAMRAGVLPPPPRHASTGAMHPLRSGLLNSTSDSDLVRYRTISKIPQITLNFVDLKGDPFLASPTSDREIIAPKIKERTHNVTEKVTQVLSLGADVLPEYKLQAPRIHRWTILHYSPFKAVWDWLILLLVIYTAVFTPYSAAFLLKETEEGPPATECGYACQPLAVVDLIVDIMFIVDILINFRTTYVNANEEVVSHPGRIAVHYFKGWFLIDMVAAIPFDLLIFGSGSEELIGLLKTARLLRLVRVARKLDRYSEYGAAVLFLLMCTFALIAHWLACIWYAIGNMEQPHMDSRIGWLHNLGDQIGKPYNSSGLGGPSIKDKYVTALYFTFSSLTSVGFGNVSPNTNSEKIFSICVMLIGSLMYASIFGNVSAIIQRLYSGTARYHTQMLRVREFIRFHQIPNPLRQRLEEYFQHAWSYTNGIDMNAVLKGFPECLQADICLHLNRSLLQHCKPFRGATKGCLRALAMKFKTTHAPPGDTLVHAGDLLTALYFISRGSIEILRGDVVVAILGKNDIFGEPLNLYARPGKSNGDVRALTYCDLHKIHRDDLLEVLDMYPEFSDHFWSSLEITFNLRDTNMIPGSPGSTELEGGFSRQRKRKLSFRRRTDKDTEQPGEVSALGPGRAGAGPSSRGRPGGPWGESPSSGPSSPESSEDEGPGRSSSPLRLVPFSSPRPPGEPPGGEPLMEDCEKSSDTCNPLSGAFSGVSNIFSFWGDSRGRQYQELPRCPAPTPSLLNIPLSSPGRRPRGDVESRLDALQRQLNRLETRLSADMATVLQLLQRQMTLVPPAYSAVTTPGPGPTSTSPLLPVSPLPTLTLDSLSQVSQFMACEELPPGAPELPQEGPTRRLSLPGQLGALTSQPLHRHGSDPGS
Sequence of Voltage-gated inwardly rectifying potassium channel KCNH2 (Q12809 whole entry): as above
Sequence of Dipeptidyl peptidase 8 (Q6V1X1 whole entry): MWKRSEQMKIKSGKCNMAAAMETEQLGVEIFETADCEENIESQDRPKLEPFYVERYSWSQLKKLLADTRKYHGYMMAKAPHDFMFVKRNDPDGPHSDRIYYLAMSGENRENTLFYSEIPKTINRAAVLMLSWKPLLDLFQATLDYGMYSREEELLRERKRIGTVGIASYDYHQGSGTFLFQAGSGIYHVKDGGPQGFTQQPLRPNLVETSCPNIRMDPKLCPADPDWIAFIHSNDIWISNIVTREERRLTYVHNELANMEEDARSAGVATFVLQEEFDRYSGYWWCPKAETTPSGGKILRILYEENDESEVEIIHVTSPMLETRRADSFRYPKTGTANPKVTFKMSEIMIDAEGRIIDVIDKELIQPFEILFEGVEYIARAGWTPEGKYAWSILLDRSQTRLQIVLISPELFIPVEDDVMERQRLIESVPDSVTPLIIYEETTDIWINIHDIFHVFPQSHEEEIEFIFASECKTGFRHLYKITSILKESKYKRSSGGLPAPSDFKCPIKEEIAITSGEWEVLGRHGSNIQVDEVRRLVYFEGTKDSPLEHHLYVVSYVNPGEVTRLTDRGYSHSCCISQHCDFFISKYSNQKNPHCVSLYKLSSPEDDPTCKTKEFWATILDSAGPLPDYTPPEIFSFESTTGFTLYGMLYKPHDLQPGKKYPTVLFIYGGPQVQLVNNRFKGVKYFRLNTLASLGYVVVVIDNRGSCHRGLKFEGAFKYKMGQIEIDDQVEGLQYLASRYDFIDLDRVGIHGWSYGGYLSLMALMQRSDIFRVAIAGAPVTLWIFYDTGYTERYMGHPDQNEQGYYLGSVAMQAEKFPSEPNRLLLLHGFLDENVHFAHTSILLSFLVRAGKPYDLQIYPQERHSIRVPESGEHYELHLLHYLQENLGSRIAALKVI

Row | SMILES | inhibition at 10 µM [1] [%] | IC50 [3] [nM] | further results
1 | N[C@H]1CN(C(=O)c2ccc3ncccc3c2)C[C@H]1C(=O)N1CCCC1 | 19 | – | –
2 | CC(c1ccc(C#N)cc1)N1C[C@H](N)[C@H](C(=O)N2CCC[C@H]2C#N)C1 (some centres undefined) | 18 | 1040 | IC50 [2]: 10000 nM
3 | Cc1cc(CN2C[C@H](N)[C@H](C(=O)N3CCC[C@H]3C#N)C2)cc(C)c1C#N | 21 | – | IC50 [2]: 28900 nM
4 | N[C@H]1CN(C(=O)c2ccc(-n3cnnn3)cc2)C[C@H]1C(=O)N1CCCC1 | 15 | – | –
5 | Cn1nccc1-c1ccc(CN2C[C@H](N)[C@H](C(=O)N3CCC[C@H]3C#N)C2)cc1 | 36 | 148 | –
6 | N[C@H]1CN(C(=O)c2cc3ccccc3s2)C[C@H]1C(=O)N1CCCC1 | 5 | – | –
7 | N#C[C@@H]1CCCN1C(=O)[C@@H]1CN(Cc2ccc(-n3cncn3)cc2)C[C@@H]1N | 40 | 461 | IC50 [2]: 1800 nM
8 | CCc1cc(CN2C[C@H](N)[C@H](C(=O)N3CCC[C@H]3C#N)C2)cc(CC)c1C#N | 3 | – | –
9 | N#Cc1ccc2c(c1)CCC2N1C[C@H](N)[C@H](C(=O)N2CCC[C@H]2C#N)C1 (some centres undefined) | 88 | – | –
10 | CC(c1ccc(-n2cncn2)cc1)N1C[C@H](N)[C@H](C(=O)N2CCC[C@H]2C#N)C1 (some centres undefined) | 7 | – | fraction unbound [4]: 0.77; Inhibition [5]: 86%; Cmax [6]: 1400 ng/mL; half-life [7]: 4.3 h; bioavailability [8]: 30.6%; AUC [9]: 7703 ng·h/mL
11 | CC(c1ccc([N+](=O)[O-])cc1)N1C[C@H](N)[C@H](C(=O)N2CCCC2)C1 (some centres undefined) | 13 | – | –
12 | N#C[C@@H]1CCCN1C(=O)[C@@H]1CN(C2CCOc3ccccc32)C[C@@H]1N (some centres undefined) | 7 | – | –
13 | N[C@H]1CN(Cc2ccc(-c3csnn3)cc2)C[C@H]1C(=O)N1CCCC1 | 84 | – | –
14 | Cc1cc(CN2C[C@H](N)[C@H](C(=O)N3CCC[C@H]3C#N)C2)ccc1-n1cncn1 | 17 | – | –
15 | N[C@H]1CN(Cc2ccc(-n3cnnn3)cc2)C[C@H]1C(=O)N1CCCC1 | 43 | – | –
16 | N#Cc1ccc(CN2C[C@H](N)[C@H](C(=O)N3CCC[C@H]3C#N)C2)cc1 | 47 | 560 | –
17 | N#Cc1cc(CN2C[C@H](N)[C@H](C(=O)N3CCCC3)C2)ccc1F | 9 | – | –

Row | SMILES | inhibition at 10 µM [1] [%] | IC50 [3] [nM] | further results
18 | N[C@H]1CN(C(=O)c2ccc3ccccc3c2)C[C@H]1C(=O)N1CCCC1 | 4 | – | –
19 | N#C[C@@H]1CCCN1C(=O)[C@@H]1CN(Cc2cnc3ccccc3c2)C[C@@H]1N | 36 | 3290 | –
20 | N[C@H]1CN(C(=O)c2cc3cc(Cl)ccc3o2)C[C@H]1C(=O)N1CCCC1 | 14 | – | –
21 | N[C@H]1CN(C(=O)c2cnc3ccccc3c2)C[C@H]1C(=O)N1CCCC1 | 9 | – | –
22 | Cc1cc(-n2cncn2)ccc1CN1C[C@H](N)[C@H](C(=O)N2CCC[C@H]2C#N)C1 | 62 | – | –
23 | N[C@H]1CN(C(=O)c2ccc(-n3cncn3)cc2)C[C@H]1C(=O)N1CCCC1 | 14 | – | –
24 | N#C[C@@H]1CCCN1C(=O)[C@@H]1CN(Cc2ccc(-c3cc[nH]n3)cc2)C[C@@H]1N | 65 | 326 | –
25 | N[C@H]1CN(C(=O)c2cnc3ccccc3n2)C[C@H]1C(=O)N1CCCC1 | 0.241 | – | IC50 [2]: > 300000 nM
26 | N[C@H]1CN(Cc2ccc(F)c(F)c2)C[C@H]1C(=O)N1CCCC1 | 19 | – | –
27 | N#C[C@@H]1CCCN1C(=O)[C@@H]1CN(Cc2ccc(-n3nccn3)cc2)C[C@@H]1N | 49 | 247 | –
28 | N[C@H]1CN(Cc2cnc3ccccc3c2)C[C@H]1C(=O)N1CCCC1 | 32 | – | –
29 | Cc1ncn(-c2ccc(CN3C[C@H](N)[C@H](C(=O)N4CCC[C@H]4C#N)C3)cc2)n1 | 4 | 858 | Activity [10]: 51%; bioavailability [8]: 36%
30 | Cc1nnc(-c2ccc(CN3C[C@H](N)[C@H](C(=O)N4CCC[C@H]4C#N)C3)cc2)o1 | 4 | 704 | IC50 [2]: 165000 nM
31 | Cn1cc(-c2ccc(CN3C[C@H](N)[C@H](C(=O)N4CCC[C@H]4C#N)C3)cc2)cn1 | 71 | 363 | –
32 | N[C@H]1CN(C(=O)c2cc3ccccc3cn2)C[C@H]1C(=O)N1CCCC1 | 0.5 | – | –
33 | N#Cc1cc(CN2C[C@H](N)[C@H](C(=O)N3CCC[C@H]3C#N)C2)ccc1F | 10 | 922 | –
34 | N#C[C@@H]1CCCN1C(=O)[C@@H]1CN(Cc2ccc(-c3csnn3)cc2)C[C@@H]1N | 91 | 190 | –
